Experimental data reported in patent US20150218654A1, “METHODS FOR PREDICTING MULTIPLE MYELOMA TREATMENT RESPONSE” (INSERM (INSTITUT NATIONAL DE LA SANTÉ ET DE LA RE- CHERCHE …, priority 2012, published 2015).
Read-outs that look alike come from different tables or passages of the source.

Assays:
[1] = system: human myeloma cell lines (HMCLs); assay: Growth assay for myeloma cells (Cell Titer Glo, 4 days, graded DNMTi concentrations); assay type: cell-based; conditions: for IC50: Homo sapiens, 96 h, 4 days
Experimental: HMCLs were cultured for 4 days in 96-well flat-bottom microtiter plates in RPMI 1640 medium, 10% FCS, 2 ng/ml IL-6 culture medium (control), with graded decitabine concentrations. Data are mean values plus or minus standard deviation (SD) of 5 experiments determined on sextuplet culture wells.
HMCLs were cultured for 4 days in 96-well flat-bottom microtiter plates in RPMI 1640 medium, 10% FCS, 2 ng/ml IL-6 culture medium (control), and graded 5-azacitidine concentrations. Data are mean values plus or minus standard deviation (SD) of 5 experiments determined on sextuplet culture wells.
HMCLs were cultured for 4 days in 96-well flat-bottom microtiter plates in RPMI 1640 medium, 10% FCS, 2 ng/ml IL-6 culture medium (control), with graded decitabine concentrations. Cell growth was evaluated by quantifying intracellular ATP amount with a Cell Titer Glo Luminescent Assay (Promega, Madison, Wis.) with a Centro LB 960 luminometer (Berthold Technologies, Bad Wildbad, Germany).
The inventors sought to determine whether DM Score could predict for the sensitivity of 10 HMCLs to DNMT inhibitor. Starting from a large cohort of 40 HMCLs (22), the 10 HMCLs with the highest or lowest DM Score were selected to assay decitabine sensitivity.
HMCLs were cultured with graded 5-azacitidine (Sigma, St. Louis, Mo.) concentrations. HMCLs cell growth was quantified with a Cell Titer Glo Luminescent Assay (Promega, Madison, Wis.) and half inhibitory concentration (IC50) was determined using GraphPad Prism (http://www.graphpad.com/scientific-software/prism/).

[2] = system: HMCLs XG-5, XG-6, XG-7, XG-20 and LP1; conditions: 0.5 μM, 7 days, 5 HMCLs
Experimental: Control cells were cultured in the same conditions without adding drug. […] Biotinylated cRNA was amplified with a double in vitro transcription and hybridized to the human U133 2.0 plus GeneChips, according to the manufacturer's instructions (Affymetrix, Santa Clara, Calif.). Fluorescence intensities were quantified and analyzed using the GECOS software (Affymetrix). Gene expression data were normalized with the MASS algorithm and analyzed with inventor's bioinformatics platforms-RAGE (http://[…] Amazonia (http://amazonia.[…] /) (36)-or SAM (Significance Analysis of Microarrays) software (37). The statistical significance of differences in overall survival between groups of patients was calculated by the log-rank test. Multivariate analysis was performed using the Cox proportional hazards model. Survival curves were plotted using the Kaplan-Meier method. All these analyses have been done with R.2.10.1 (http://www.r-project.org/) and bioconductor version 2.5. Gene annotation and networks were generated through the use of Ingenuity Pathways Analysis (Ingenuity® Systems, Redwood City, Calif.) (38).

Nc1ncn([C@H]2C[C@H](O)[C@@H](CO)O2)c(=O)n1 [decitabine, 5-Aza-2′-deoxycytidine]
fold higher decitabine sensitivity ([1]; HMCLs with highest DM Score versus low DM Score, P=0.01): 11 fold | IC50 ([1]; decitabine, 5 HMCLs with low DM Score, read-out: IC50 range): 2.92 to 60.8 µM | IC50 ([1]; read-out: IC50 range, decitabine, 5 HMCLs with the highest DM Score): 0.15 to 2.22 µM | IC50 ([1]; read-out: median IC50, decitabine, 5 HMCLs with low DM Score): 7.94 µM | IC50 ([1]; read-out: median IC50, decitabine, 5 HMCLs with the highest DM Score): 0.68 µM | sensitivity class of HMCLs ([1]; XG6, XG20, XG13, SKMM2, LP1 (lowest DM Score)): Resistant | sensitivity class of HMCLs ([1]; XG12, XG16, XG19, JJN3, RPMI8226 (highest DM Score)): Sensitive | number of genes downregulated ([2]; FDR <5%): 79 genes | number of genes significantly upregulated ([2]; FDR <5%): 48 genes | Ratio 226719_at (CDNA FLJ34899 fis) ([2]; treated vs control): 0.53 | Ratio 227755_at (CDNA FLJ42435 fis) ([2]; treated vs control): 0.53 | Ratio 229969_at (Transcribed locus) ([2]; treated vs control): 0.41 | Ratio 230570_at (Transcribed locus) ([2]; treated vs control): 0.37 | Ratio 244623_at (Transcribed locus) ([2]; treated vs control): 0.39 | Ratio ACRC (238825_at) ([2]; treated vs control): 25.99 | Ratio ADFP (209122_at) ([2]; treated vs control): 3.70 | Ratio AIG1 (223136_at) ([2]; treated vs control): 0.41 | Ratio ALDH1L2 (231202_at) ([2]; treated vs control): 0.45 | Ratio ARHGAP9 (224451_x_at) ([2]; treated vs control): 0.38 | Ratio ATP1B1 (201243_s_at) ([2]; treated vs control): 3.43 | Ratio C6orf48 (220755_s_at) ([2]; treated vs control): 0.49 | Ratio C10orf57 (222545_s_at) ([2]; treated vs control): 0.56 | Ratio C12orf5 (219099_at) ([2]; treated vs control): 2.16 | Ratio C17orf27 (230000_at) ([2]; treated vs control): 2.41 | Ratio C20orf118 (235964_x_at) ([2]; treated vs control): 2.12 | Ratio CADPS2 (219572_at) ([2]; treated vs control): 0.37 | Ratio CBS (212816_s_at) ([2]; treated vs control): 0.41 | Ratio CBX4 (227558_at) ([2]; treated vs control): 0.49 | Ratio CCPG1 (214152_at) ([2]; treated vs control): 0.44 | Ratio COP1 (1552701_a_at) ([2]; treated vs control): 2.34 | Ratio COPB2 (213500_at) ([2]; treated vs control): 0.58 | Ratio CORO1A (209083_at) ([2]; treated vs control): 2.38 | Ratio CT45-2 (235700_at) ([2]; treated vs control): 30.39 | Ratio CTAGE5 (215930_s_at) ([2]; treated vs control): 0.30 | Ratio CTBS (218923_at) ([2]; treated vs control): 0.42 | Ratio DHCR7 (201791_s_at) ([2]; treated vs control): 0.45 | Ratio DKFZP586A0522 (207761_s_at) ([2]; treated vs control): 2.97 | Ratio DNAJB9 (1554462_a_at) ([2]; treated vs control): 0.42 | Ratio DPYD (204646_at) ([2]; treated vs control): 0.48 | Ratio DYRK4 (212954_at) ([2]; treated vs control): 0.42 | Ratio EAF2 (219551_at) ([2]; treated vs control): 0.46 | Ratio EIF2C2 (222294_s_at) ([2]; treated vs control): 0.52 | Ratio EIF2S2 (208725_at) ([2]; treated vs control): 0.46 | Ratio ELF4 (31845_at) ([2]; treated vs control): 1.75 | Ratio ELL2 (226982_at) ([2]; treated vs control): 0.45 | Ratio EPSTI1 (227609_at) ([2]; treated vs control): 1.99 | Ratio ERN1 (235745_at) ([2]; treated vs control): 0.35 | Ratio FKBP11 (219118_at) ([2]; treated vs control): 0.38 | Ratio FLJ22028 (219802_at) ([2]; treated vs control): 0.44 | Ratio FNDC3A (202304_at) ([2]; treated vs control): 0.40 | Ratio G1P2 (205483_s_at) ([2]; treated vs control): 2.77 | Ratio GALNT3 (203397_s_at) ([2]; treated vs control): 0.65 | Ratio GLS (203157_s_at) ([2]; treated vs control): 0.42 | Ratio GNG7 (228831_s_at) ([2]; treated vs control): 0.33 | Ratio GOLPH3L (218361_at) ([2]; treated vs control): 0.45 | Ratio GSK3B (226183_at) ([2]; treated vs control): 0.49 | Ratio GSN (200696_s_at) ([2]; treated vs control): 3.97 | Ratio H2-ALPHA (216323_x_at) ([2]; treated vs control): 2.56 | Ratio HBS1L (209314_s_at) ([2]; treated vs control): 0.53 | Ratio HEXIM1 (202814_s_at) ([2]; treated vs control): 2.18 | Ratio HIST1H2BG (210387_at) ([2]; treated vs control): 2.00 | Ratio HLA-DPA1 (211990_at) ([2]; treated vs control): 1.70 | Ratio HN1 (217755_at) ([2]; treated vs control): 2.17 | Ratio ID2 (201565_s_at) ([2]; treated vs control): 2.76 | Ratio IDH1 (1555037_a_at) ([2]; treated vs control): 0.53 | Ratio IER3 (201631_s_at) ([2]; treated vs control): 3.97 | Ratio IFI27 (202411_at) ([2]; treated vs control): 2.84 | Ratio IFI35 (209417_s_at) ([2]; treated vs control): 1.93
